# Assay results from PMC4526861, “Inhibition of protein kinase C by isojacareubin suppresses hepatocellular carcinoma metastasis and induces apoptosis in vitro and in vivo” (Scientific Reports, 2015).
# Columns and labels:
# [1] = test system: HeLa-C3 cells; design: method as in PMID 18614188; conditions: cited from earlier work
# [2] = Body weight in xenograft study; format: in vivo, BALB/c-nu nude mice; conditions: 5 mg/kg, tail vein, two weeks
# Experimental: HepG2 cells were harvested and resuspended in PBS. A total of 5 × 10^6 cells were subcutaneously injected into the right flank. Tumor volume was calculated using the following formula: V = (L × W^2)/2, where L is the length and W is the width of the tumor nodules measured with vernier calipers. Once the volume of the tumors reached 75–100 mm^3, the mice were randomly divided into three groups (n = 5). The mice were treated every other day for two weeks with tail vein injections of either vehicle (5% ethanol and 2.5% polyethylene glycol in saline), compound 7, or ISJ (5 mg/kg in the vehicle). Body weights were measured before each drug injection. After the 15th day, the mice were euthanized, and the tumors were isolated, weighed and photographed.
# [3] = test system: MMP-9, FGFR-1, E-cadherin; test: Western blot of invasion-related proteins, HepG2; format: cell-based, human; conditions: HepG2, 24 h
# Experimental: (§1) Additional PKC targeting effects involved in the early response of major MAPK phosphorylation and the late response of HCC cell invasion and apoptosis were investigated. After 24 h of treatment with ISJ at the indicated concentrations, the total protein lysates from HCC cells were analyzed (Fig. 6). ISJ inhibited the phosphorylated, activated forms of c-Raf, MEK1/2 and ERK1/2 in the MAPK signaling pathway in both HepG2 and QGY-7703 cells (Fig. 6a). […] In contrast, E-cadherin expression was elevated, specifically at the highest concentration of ISJ (20 μM) (Fig. 6b). In addition, we analyzed several representative apoptotic proteins, including cleaved PARP (c-PARP), p53 and p21. […] These findings support our hypothesis that ISJ restrains HCC cell metastasis and induces HCC cell apoptosis by specifically inhibiting PKC.
# (§2) The total membrane and cytosolic proteins were extracted using a Membrane and Cytosol Protein Extraction Kit (Beyotime). Extracted proteins from cells or animal tissues were separated by SDS-PAGE and transferred to polyvinylidene difluoride (PVDF) membranes (Bio-Rad). The PVDF membranes were blocked with 5% nonfat milk and incubated with primary antibodies overnight, followed by incubation with a donkey anti-rabbit or anti-mouse secondary antibody (IRDye 800, LI-COR, Biosciences). […] The intensity was quantitative with Quantity One software (Bio-Rad). […]
# [4] = test system: phosphorylated c-Raf, MEK1/2 and ERK1/2; test: Western blot of MAPK phosphorylation, QGY-7703; format: cell-based, human; conditions: QGY-7703, 24 h
# Experimental: as §1, §2
# [5] = test system: cPKC and nPKC; test: Pull-down competition with free ISJ; format: binding, human; conditions: free ISJ 20 μM, HepG2 lysates
# Description: To identify whether ISJ and compound 7 target PKC in cells, we performed pull-down experiments using ISJ- and compound 7-coupled Sepharose beads with HepG2 cell lysates. Endogenous cPKC (PKCα) and nPKC (PKCδ, PKCε and PKCμ) in HepG2 lysates were pulled down by ISJ-coupled CNBr-activated Sepharose 4B beads (Fig. 5a).
# Figure 5 Direct interactions between ISJ and PKC isotypes. (a) Immobilized on CNBr-activated Sepharose 4B beads, ISJ directly bound to cPKC (PKCα) and nPKC (PKCδ, PKCε and PKCμ). (b) HepG2 cell lysates were incubated with ISJ-conjugated Sepharose 4B beads or with DMSO-conjugated control beads in the absence or presence of free ISJ (20 μM), and the bead-captured proteins were subjected to analysis by immunoblotting.
# The control beads were prepared by incubating the beads with DMSO. Proteins (500 μg) from lysed HepG2 cells were mixed with either the control beads, compound 7-coupled beads, or ISJ-coupled beads (100 μL) in reaction buffer [50 mM Tris (pH 7.5), 5 mM EDTA, 150 mM NaCl, 1 mM DTT, 0.01% NP-40, 2 μg/mL BSA, 1 mM PMSF, 1% protease inhibitor mixture]. After incubation with gentle rocking overnight at 4 °C, the beads were washed 5 times with washing buffer [50 mM Tris (pH 7.5), 5 mM EDTA, 150 mM NaCl, 1 mM DTT, 0.01% NP-40, 1 mM PMSF], and binding was visualized by western blotting.
# [6] = test system: PKCζ; test: Western blot of PKC isoform expression in cytosol and membrane; format: cell-based, human; conditions: HepG2, 24 h incubation
# Experimental: To further determine whether compound 7 and ISJ represent potential candidates for selective PKC expression inhibitors against hepatoma, the expression of PKC isoforms in HepG2 cells was characterized by western blotting. After 24 h of incubation with GFX, GO, ISJ and compound 7 at the indicated concentrations, PKC proteins from the cytosol and membrane of HepG2 cells were evaluated. ISJ and compound 7 treatments reduced both the cytosol and cell membrane expression of PKCζ.
# The total membrane and cytosolic proteins were extracted using a Membrane and Cytosol Protein Extraction Kit (Beyotime). Extracted proteins from cells or animal tissues were separated by SDS-PAGE and transferred to polyvinylidene difluoride (PVDF) membranes (Bio-Rad). The PVDF membranes were blocked with 5% nonfat milk and incubated with primary antibodies overnight, followed by incubation with a donkey anti-rabbit or anti-mouse secondary antibody (IRDye 800, LI-COR, Biosciences). The images were captured using the Odyssey Infrared Imaging System (LI-COR, Biosciences), according to the manufacturer's instructions. The intensity was quantitative with Quantity One software (Bio-Rad). To ensure equal protein loading, each membrane was stripped and reprobed with an anti-β-actin antibody. All experiments were repeated independently no less than three times.
# [7] = test system: c-PARP, p53 and p21; test: Western blot of apoptotic proteins, HepG2; format: cell-based, human; conditions: HepG2, 24 h
# Experimental: as §1, §2
substance,measurement,setting,value
Isojacareubin [ISJ],growth of HeLa-C3 cells,[1],inhibited the growth
same,change in body weight compared to vehicle-treated controls,[2],no significant change
same,expression levels of MMP-9 and FGFR-1,[3],markedly reduced
same,E-cadherin expression,[3]; specifically at 20 μM,elevated
same,"phosphorylated, activated forms of c-Raf, MEK1/2 and ERK1/2",[4],inhibited
same,amounts of cPKC and nPKC captured by ISJ-coupled 4B beads in presence of free compound,[5],obvious decline
same,PKCζ expression in cytosol and cell membrane,[6],significantly decreased
same,"expression levels of c-PARP, p53 and p21",[7],increased
